Test results published in patent US9700344B2, “Method for treating chronic wounds with an extracellular polymeric substance solvating system” (priority 2008, dated 2017).

Key:
[1] = test system: S. aureus; experiment: Quantitative PCR analysis of relative bacterial levels in treated biofilms; type: cell-based, Staphylococcus aureus Mu50; details: DNA extraction and quantitative PCR of treated mixed biofilm; Control 23.5
[2] = test system: P. aeruginosa; experiment: as above; type: cell-based, Pseudomonas aeruginosa PAO1; details: DNA extraction and quantitative PCR of treated mixed biofilm; Control 46.8
Description: (§1) Pseudomonas aeruginosa PAO1 (ATCC number: BAA-47), Enterococcus faecalis V583 (ATCC number: 700802), and Staphylococcus aureus Mu50 (ATCC number: 700699) grown on agar plates made from tryptic soy broth (TSB, Sigma Chemical Co., St. Louis, Mo., USA) were inoculated into TSB broth and grown at 37° C. in a shaker for 16 hr. An aliquot was diluted in TSB broth to a series of dilutions for each individual bacteria type. The diluted bacteria were plated out to count colony forming units (CFU). They were further diluted to 1×10^6 cfu ml^−1 and mixed equally as inoculums. Bolton broth (Oxoid Ltd, Basingstock, Hampshire, England) with 50% Bovine plasma (Biomeda, Foster City, Calif., USA) was used for biofilm formation media. […]
(§2) In a series of runs the formed biofilms were washed and then incubated with the three CAZS solutions, then associated with a 30 μg/ml solution of Gentamicin sulfate (MP Biomedicals, Illkirch, France) in distilled water, or with a 20 ppm solution of 2,4,4′-trichloro-2-hydroxydiphenyl ether (Triclosan, KIC Chemicals, New Paltz, N.Y., USA) dissolved in propylene glycol (ScienceLab, Houston, Tex., USA). […] The biomass dry weight was measured as the total weight minus the empty tube weight measured before use. […] A separate set of tubes in triplicate was used for DNA extraction and quantitative PCR analysis to determine relative bacterial levels in the treated biofilms.

[3] = test system: E. faecalis; experiment: as above; type: cell-based, Enterococcus faecalis V583; details: DNA extraction and quantitative PCR of treated mixed biofilm; Control 29.7
Description: as §1, §2

[4] = test system: biofilms of Pseudomonas aeruginosa PAO1, Enterococcus faecalis V583 and Staphylococcus aureus Mu50; experiment: Biofilm dry weight after incubation of formed three-species biofilms with treatments; type: cell-based; details: biomass dry weight of treated mixed biofilm, 80° C. 48 hours drying; incubation 37° C., 140 rpm; triplicate; Control 126
Description: as §1, §2

Row | Molecule | Relative Bacterial Levels S. aureus [1] | Relative Bacterial Levels P. aeruginosa [2] | Relative Bacterial Levels E. faecalis [3] | Dry Weight [4]
1 | Oc1cc(Cl)ccc1Oc1ccc(Cl)cc1Cl [20 ppm Triclosan, 2,4,4′-trichloro-2-hydroxydiphenyl ether] | 0.13 | 60.0 | 39.9 | 88 mg
2 | Gentamicin sulfate [20 mg/ml Gentamicin] | 49.6 | 0.2 | 50.3 | 78 mg
